Test results as given in PMC4255280 (Cell metabolism, 2014).

Legend:
MC4R [1] = molecular target: MC4R (Mus musculus, UniProt P56450); assay: Short-circuit current; type: cell-based
MC4R [2] = assay: α-MSH ISC response in human colon mucosa after antagonist pretreatment; type: cell-based; details: BIBO 300 nM, BIIE 1 μM, HS014 100 nM, each alone, 30 min prior to α-MSH
GPR119 = assay: Short-circuit current; type: cell-based, mouse; details: MC4R−/− mice, 10 μM apical

Sequence of MC4R (Mus musculus, UniProt P56450) (P56450 whole entry): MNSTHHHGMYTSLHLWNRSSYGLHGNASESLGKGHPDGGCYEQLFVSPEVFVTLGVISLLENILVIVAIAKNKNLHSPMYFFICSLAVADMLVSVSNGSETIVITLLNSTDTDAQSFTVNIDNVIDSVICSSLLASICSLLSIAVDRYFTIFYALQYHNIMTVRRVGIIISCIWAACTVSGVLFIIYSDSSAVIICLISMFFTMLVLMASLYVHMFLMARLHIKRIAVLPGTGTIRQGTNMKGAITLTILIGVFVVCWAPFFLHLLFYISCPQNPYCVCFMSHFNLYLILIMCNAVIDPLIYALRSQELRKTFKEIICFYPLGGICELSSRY

Structure (SMILES) | Effect of pretreatment on α-MSH (1 μM, bl) ISC response in mouse colon (MC4R [1]) | Effect of pretreatment on α-MSH (1 μM, bl) ISC response in human colon mucosa (MC4R [2]) | Response in MC4R−/− mucosae versus MC4R+/+ mucosae (GPR119)
NC(=O)NCc1ccc(CNC(=O)[C@@H](CCCN=C(N)N)NC(=O)C(c2ccccc2)c2ccccc2)cc1 [BIBO3304] | almost completely blocked | blockade | –
CC(C)(C)OC(=O)N1CCC(OCc2nc(-c3ccncc3)no2)CC1 [PSN632408] | – | – | not significantly different
N=C(N)NCCC[C@H](NC(=O)CC1(CC(=O)N2CCN(C3c4ccccc4NC(=O)c4ccccc43)CC2)CCCC1)C(=O)NCCn1c(=O)n(-c2ccccc2)n(-c2ccccc2)c1=O (some centres unmarked) [BIIE0246] | – | not by BIIE alone | –
NC1=N[C@H](O)[C@H]2[C@H]3O[C@]4(O)O[C@@H]([C@@H](O)[C@@]2(N1)[C@@H]4O)[C@]3(O)CO [tetrodotoxin] | not tetrodotoxin (TTX) sensitive | – | –
